According to US20190125751A1, “ANTICANCER COMBINATION THERAPY” (BOEHRINGER INGELHEIM INTERNATIONAL GMBH, priority 2016, published 2019):

Legend:
[1] = test system: EGFR-exon 19 deletion+T790M+C797S; conditions: preclinical models; cited from earlier work
[2] = mouse, in vivo
From the text: (§1) Compound A is a small molecule epidermal growth factor receptor (EGFR) mutant-specific inhibitor. […] Compound A is a novel, 3rd generation EGFR mutant-specific TKI, which is currently being investigated in first and second line setting for treatment of patients with EGFR-mutated NSCLC.

mutant forms of EGFR = assay: enzymatic inhibitory activity, mutant forms of EGFR versus wild type EGFR; type: biochemical; conditions: in vitro
From the text: as §1

EGFR mutant cell lines = assay: cellular proliferation assays comparing EGFR mutant with EGFR wild type cell lines; type: cell-based; conditions: EGFR mutant versus EGFR wild type cell lines
From the text: as §1

H1975 (EGFRL858R/T790M) = assay: in vivo xenograft study in mice, NSCLC model H1975; conditions: once daily or twice daily
From the text: as §1

[3] = test system: HCC827 (EGFRDelE746-A750); assay: in vivo xenograft study in mice, NSCLC model HCC827; conditions: once daily or twice daily
From the text: as §1

[4] = test system: T790M-containing cell lines; conditions: several preclinical models; cited from earlier work

C=CC(=O)Nc1cc(Nc2nccc(-c3cn(C)c4ccccc34)n2)c(OC)cc1N(C)CCN(C)C [AZD9291, osimertinib]
sensitivity of the mutant protein to the drug [1]: resistant

C=CC(=O)Nc1cccc(Oc2nc(Nc3ccc(N4CCN(C)CC4)cc3)nc3ccsc23)c1 [Compound A, N-(3-{2-[4-(4-methyl-piperazin-1-yl)-phenylamino]-thieno[3,2-d]pyrimidin-4-yloxy}-phenyl)-acrylamide]
tolerability [2]: tolerated by the mice
enzymatic inhibitory activity towards mutant forms of EGFR compared to wild type EGFR (mutant forms of EGFR): more potent
inhibition of proliferation of mutated cell lines at lower concentration than for cells expressing wild type EGFR receptor (EGFR mutant cell lines): approximately 35 fold
anti-tumor activity as a single agent (H1975 (EGFRL858R/T790M)): Tumor regressions were observed in all models
anti-tumor activity as a single agent [3]: Tumor regressions were observed in all models

CN(C)C/C=C/C(=O)Nc1cc2c(Nc3ccc(F)c(Cl)c3)ncnc2cc1O[C@H]1CCOC1 [Compound B, afatinib]
inhibition of T790M-containing cell lines [4]: effectively inhibit

COc1cc2ncnc(Nc3ccc(F)c(Cl)c3)c2cc1NC(=O)/C=C/CN1CCCCC1 [dacomitinib]
inhibition of T790M-containing cell lines [4]: effectively inhibit
